From patent US8399491B2, “Derivatives of indole-2-carboxamides and of azaindole-2-carboxamides substituted with a silanyl group, preparation thereof and therapeutic use thereof” (Sanofi, priority 2008, dated 2013)

tested on: not given; test: not given; conditions: not given

Row | melting point [°C] | Compound
1 | 98 to 100 | O=C(Nc1ccc(N2CCC2)nc1)c1cc2cc([SiH2]C(c3ccccc3)c3ccccc3)ccc2n1Cc1cccc(F)c1
2 | 166 to 168 | CC[Si](CC)(CC)c1ccc2c(c1)cc(C(=O)Nc1ccc(N3CCC3)nc1)n2Cc1cccc(F)c1
3 | 110 to 112 | CC(C)(C)[Si](C)(C)c1ccc2c(c1)cc(C(=O)Nc1ccc(N3CCC3)nc1)n2Cc1cccc(F)c1
4 | 192 to 194 | C[Si](C)(c1ccc2c(c1)cc(C(=O)Nc1ccc(N3CCCC3)nc1)n2Cc1cccc(F)c1)C1CCCCC1
5 | 200 to 202 | C[Si](C)(c1ccccc1)c1ccc2c(c1)cc(C(=O)Nc1ccc(N3CCC3)nc1)n2Cc1cccc(F)c1
6 | 179 to 180 | CC(C)[Si](C)(C)c1ccc2c(c1)cc(C(=O)Nc1ccc(N3CCC3)nc1)n2Cc1cccc(F)c1
7 | 171 to 173 | CC[Si](C)(CC)c1ccc2c(c1)cc(C(=O)Nc1ccc(N3CCC3)nc1)n2Cc1cccc(F)c1
8 | 207 to 208 | C[Si](C)(C)c1ccc2c(c1)cc(C(=O)Nc1ccc(N3CC(O)C3)nc1)n2Cc1cccc(F)c1
9 | 160 to 162 | C[Si](C)(C)c1cccc2cc(C(=O)Nc3ccc(N4CCC4)nc3)n(Cc3cccc(F)c3)c12
10 | 215 to 217 | C[Si](C)(C)c1cccc2cc(C(=O)Nc3ccc(N4CC(O)C4)nc3)n(Cc3cccc(F)c3)c12
11 | 188 to 189 | CC[Si](C)(C)c1ccc2c(c1)cc(C(=O)Nc1ccc(N3CCC3)nc1)n2Cc1cccc(F)c1
12 | 202 to 203 | C[Si](C)(c1ccc2c(c1)cc(C(=O)Nc1ccc(N3CCC3)nc1)n2Cc1cccc(F)c1)C1CCCCC1

Row | Compound | melting point [°C]
13 | C[Si](C)(C)c1ccc2c(c1)cc(C(=O)Nc1ccc(N3CCC3)nc1)n2Cc1cccc(F)c1 [Compound 3, N-[6-(Azetidin-1-yl)pyridin-3-yl]-5-trimethylsilyl-1-[(3-fluorophenyl)methyl]-1H-indole-2-carboxamide] | 212 to 213

molecular target: T1, TRPV1 receptor (Rattus norvegicus, UniProt O35433); test: Inhibition of the current induced by capsaicin on rat DRGs (whole-cell patch-clamp); format: cell-based; conditions: compound at 1 nM; capsaicin response (1 microM); newborn rat DRG primary culture
T1 construct: The neurones of the DRG naturally express the TRPV1 receptor; endogenous in cells; host or cells: primary culture of newborn rat dorsal root ganglion (DRG) neurones
T1 sequence (O35433 whole entry): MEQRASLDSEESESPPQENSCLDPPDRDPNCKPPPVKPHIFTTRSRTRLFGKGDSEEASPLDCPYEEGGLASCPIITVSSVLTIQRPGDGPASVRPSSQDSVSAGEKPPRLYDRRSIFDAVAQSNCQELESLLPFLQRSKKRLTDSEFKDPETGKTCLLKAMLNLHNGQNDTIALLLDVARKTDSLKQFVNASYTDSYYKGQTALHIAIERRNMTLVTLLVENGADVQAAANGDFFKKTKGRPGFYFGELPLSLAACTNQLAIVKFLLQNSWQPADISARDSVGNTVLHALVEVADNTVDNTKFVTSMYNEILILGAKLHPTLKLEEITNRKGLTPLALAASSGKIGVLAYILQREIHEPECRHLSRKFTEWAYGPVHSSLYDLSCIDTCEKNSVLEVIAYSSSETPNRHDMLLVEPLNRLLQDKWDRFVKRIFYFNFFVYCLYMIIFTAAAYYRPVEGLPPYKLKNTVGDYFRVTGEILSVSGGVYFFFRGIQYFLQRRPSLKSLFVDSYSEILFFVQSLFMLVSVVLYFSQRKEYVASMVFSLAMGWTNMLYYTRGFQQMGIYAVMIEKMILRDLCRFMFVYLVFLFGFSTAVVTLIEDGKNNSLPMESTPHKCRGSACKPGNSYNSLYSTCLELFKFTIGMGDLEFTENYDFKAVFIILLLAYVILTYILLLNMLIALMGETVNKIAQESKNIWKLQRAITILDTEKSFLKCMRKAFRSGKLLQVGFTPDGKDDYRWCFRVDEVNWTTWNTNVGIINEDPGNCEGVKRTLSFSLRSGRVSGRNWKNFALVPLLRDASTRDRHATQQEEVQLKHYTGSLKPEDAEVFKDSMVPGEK
Description: Test for Inhibition of the Current Induced by Capsaicin on Rat DRGs
Primary Culture of Rat Dorsal Route Ganglion (DRG) Cells:
The neurones of the DRG naturally express the TRPV1 receptor.
Newborn rat DRG primary cultures are prepared from 1-day-old rat pups. Briefly, after dissection, the ganglia are trypsinized and the cells are mechanically dissociated by controlled trituration. The cells are resuspended in an Eagle's basal culture medium containing 10% of foetal calf serum, 25 mM KCl, 2 mM glutamine, 100 μg/ml gentamicin and 50 ng/ml of NGF, and then deposited onto laminin-coated glass coverslips (0.2×10^6 cells per coverslip) which are then placed in Corning 12-well dishes. […]
The measuring chambers (volume 800 μl) containing the cell preparation are placed on the platform of an inverted microscope (Olympus IMT2) equipped with Hoffman optics (Modulation Contrast, New York) and observed at the magnification of ×400. […] The overall currents (membrane potential fixed at −60 mV) are recorded with an Axopatch 1D amplifier (Axon Instruments, Foster city, Calif.), connected to a PC controlled by Pclamp8 software (Axon Instruments). The current traces are recorded on paper and simultaneously digitized (sampling frequency 15 to 25 Hz) and acquired on the hard drive of the PC. […] The results are expressed as % inhibition of the control capsaicin response.

Row | Compound | inhibition at 0.001 µM [%]
14 | C[Si](C)(C)c1ccc2cc(C(=O)Nc3ccc(N4CC(O)C4)nc3)n(Cc3cccc(F)c3)c2c1 [Compound 2, N-[6-(3-Hydroxyazetidin-1-yl)pyridin-3-yl]-6-trimethylsilyl-1-[(3-fluorophenyl)methyl]-1H-indole-2-carboxamide] | 84

same assay, conditions: compound at 10 nM; capsaicin response (1 microM); newborn rat DRG primary culture

Row | Compound | inhibition at 0.01 µM [%]
15 | C[Si](C)(C)c1ccc2c(c1)cc(C(=O)Nc1ccc(N3CCC3)nc1)n2Cc1cccc(F)c1 [Compound 3, N-[6-(Azetidin-1-yl)pyridin-3-yl]-5-trimethylsilyl-1-[(3-fluorophenyl)methyl]-1H-indole-2-carboxamide] | 95
